Read-outs that look alike come from different tables or passages of the source.
Experiments:
human GLP-1R = human GLP-1R (Homo sapiens, UniProt P43220); experiment: cAMP signal analysis of GLP-1R (GLP-1 receptor agonist activity); assay type: cell-based
Description: A wild human GLP-1R (NM_002062.5) was subjected to transient transfection and screened for two weeks by 600 μg/ml of hygromycin-B to obtain a cell line which was recombined and integrated into an FlpInCHO (Invitrogen) cell stable expression system. The culture condition of the FlpInCHO cell was as follows: 10% of heat-inactivated fetal calf serum was added to a DMEM culture solution, and the culture was performed in a 5% carbon dioxide cell incubator.
In the test, an LANCE cAMP detection kit was used for measuring the cAMP signal intensity.

[1] = Pharmacokinetic comparison experiment in rats, single subcutaneous injection; conditions: rat, in vivo, sc, 0.02 mg/kg
Description: A single subcutaneous injection was performed with a dose of 0.02 mg/kg; blood collection was performed by tail clipping, and the blood collection time points were: 0 h, 15 min, 30 min, 1 h, 2 h, 3 h, 4 h, 6 h, 8 h, 24 h, 48 h and 72 h. The compound concentration in plasma was determined by LC-MS/MS, all data were collected and exported by Unifi 1.9.3 software, and Excel software was used for data calculation. A non-compartmental model of DAS 3.0 software was used to calculate the pharmacokinetic parameters of rats after administration.

db/db mice = experiment: Glucose lowering experiment, random blood glucose of db/db mice after single subcutaneous injection; assay type: in vivo
Description: (§1) After DB/DB mice with high blood glucose were acclimated for 5-7 days, a non-fasting random blood glucose level was determined; after fasting for 12 h, a fasting blood glucose level was determined by a rapid blood glucose meter. […] Mice in each test drug group and each control group received single subcutaneous injection of each test drug or a control solution respectively, and the mice in the model control group received single subcutaneous injection of PBS buffer solution; and the experiment grouping and dosage setting conditions were shown in Table 1:
Blood glucose level: the blood was taken from the tail tip of the mice to measure the blood glucose level with a fast blood glucose meter and blood glucose test strips. […]
The glucose lowering effect of the test article was evaluated by BG (mmol/L) or AUC (mmol/L·min).
(§2) T test was used for comparison between two groups. One-way ANOVA was used for comparison among three or more groups. If there was a significant difference in F value, multiple comparisons should be performed after ANOVA analysis. All data analyses were performed with SPSS 17.0. If p<0.05, it was considered a significant difference.

[2] = Effect on random body weight of db/db mice after single subcutaneous injection; assay type: in vivo; parameters: unit not given here
Description: as §1
Body weight: after grouping the animals, the body weight was measured once a day at a fixed time period
as §2

human GLP-1R, sequence (P43220 24-463): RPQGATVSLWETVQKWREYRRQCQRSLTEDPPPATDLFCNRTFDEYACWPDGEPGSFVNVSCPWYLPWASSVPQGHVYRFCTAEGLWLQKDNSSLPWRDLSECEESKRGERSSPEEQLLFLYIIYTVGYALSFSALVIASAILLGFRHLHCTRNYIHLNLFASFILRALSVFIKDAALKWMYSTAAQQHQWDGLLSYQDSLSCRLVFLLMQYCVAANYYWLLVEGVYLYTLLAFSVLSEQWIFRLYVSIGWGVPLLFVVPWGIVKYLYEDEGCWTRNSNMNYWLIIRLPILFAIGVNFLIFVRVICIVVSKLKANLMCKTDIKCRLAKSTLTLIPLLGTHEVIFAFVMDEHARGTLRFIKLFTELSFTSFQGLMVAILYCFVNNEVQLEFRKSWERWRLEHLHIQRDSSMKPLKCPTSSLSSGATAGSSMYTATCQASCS

CC[C@H](C)[C@H](NC(=O)[C@H](Cc1ccccc1)NC(=O)[C@H](CCC(=O)O)NC(=O)[C@H](CCCCNC(=O)COCCOCCNC(=O)COCCOCCNC(=O)CC[C@H](NC(=O)CCCCCCCCCCCCCCCCC(=O)O)C(=O)O)NC(=O)[C@H](C)NC(=O)[C@H](C)NC(=O)[C@H](CCC(N)=O)NC(=O)[C@](C)(CC)NC(=O)[C@H](CCC(=O)O)NC(=O)[C@H](CC(C)C)NC(=O)[C@H](Cc1ccc(O)cc1)NC(=O)[C@H](CO)NC(=O)[C@H](CO)NC(=O)[C@@H](NC(=O)[C@H](CC(=O)O)NC(=O)[C@H](CO)NC(=O)[C@@H](NC(=O)[C@H](Cc1ccccc1)NC(=O)[C@@H](NC(=O)CNC(=O)[C@H](CCC(=O)O)NC(=O)[C@](C)(CC)NC(=O)[C@@H](N)Cc1c[nH]cn1)[C@@H](C)O)[C@@H](C)O)C(C)C)C(=O)N[C@@H](C)C(=O)N[C@@H](Cc1c[nH]c2ccccc12)C(=O)N[C@@H](CC(C)C)C(=O)N[C@H](C(=O)N[C@@H](CCCNC(=N)N)C(=O)NCC(=O)N[C@@H](CCCNC(=N)N)C(=O)NCC(=O)O)C(C)C [NO: 3]
EC50 (human GLP-1R; CHO cell line stably expressing human GLP-1R, downstream cAMP signal, LANCE cAMP kit, read-out: GLP-1R EC50): 2.84 ± 0.513 nM
CL/F ([1]; male): 0.133 mL/min/kg
half-life ([1]; male): 923 min
AUC(0-inf) [1]: 2810 ng·h/mL
AUC(0-t) [1]: 2630 ng·h/mL
AUMC(0-t), Mean [1]: 73156.82 h * h * μg/L
AUMC(0-∞), Mean [1]: 89827.62 h * h * μg/L
Cmax [1]: 66.8 ng/mL
R_AUC(t/∞), Mean [1]: 93.53%
Tmax [1]: 24 h
Vd/F [1]: 0.17 L/kg

CC[C@H](C)[C@H](NC(=O)[C@H](Cc1ccccc1)NC(=O)[C@H](CCC(=O)O)NC(=O)[C@H](CCCCNC(=O)COCCOCCNC(=O)COCCOCCNC(=O)CC[C@H](NC(=O)CCCCCCCCCCCCCCCCC(=O)O)C(=O)O)NC(=O)[C@H](C)NC(=O)[C@H](C)NC(=O)[C@H](CCC(N)=O)NC(=O)CNC(=O)[C@H](CCC(=O)O)NC(=O)[C@H](CC(C)C)NC(=O)[C@H](Cc1ccc(O)cc1)NC(=O)[C@H](CO)NC(=O)[C@H](CO)NC(=O)[C@@H](NC(=O)[C@H](CC(=O)O)NC(=O)[C@H](CO)NC(=O)[C@@H](NC(=O)[C@H](Cc1ccccc1)NC(=O)[C@@H](NC(=O)CNC(=O)[C@H](CCC(=O)O)NC(=O)[C@@H]1CCCN1C(=O)[C@@H](N)Cc1c[nH]cn1)[C@@H](C)O)[C@@H](C)O)C(C)C)C(=O)N[C@@H](C)C(=O)N[C@@H](Cc1c[nH]c2ccccc12)C(=O)N[C@@H](CC(C)C)C(=O)N[C@H](C(=O)N[C@@H](CCCNC(=N)N)C(=O)NCC(=O)N[C@@H](CCCNC(=N)N)C(=O)NCC(=O)O)C(C)C [NO: 18]
EC50 (human GLP-1R): 3.12 ± 0.512 nM

CC[C@H](C)[C@H](NC(=O)[C@H](Cc1ccccc1)NC(=O)[C@H](CCC(=O)O)NC(=O)[C@H](CCCCNC(=O)COCCOCCNC(=O)COCCOCCNC(=O)CC[C@H](NC(=O)CCCCCCCCCCCCCCCCC(=O)O)C(=O)O)NC(=O)[C@H](C)NC(=O)[C@H](C)NC(=O)[C@H](CCC(N)=O)NC(=O)[C@@](C)(CC(F)(F)F)NC(=O)[C@H](CCC(=O)O)NC(=O)[C@H](CC(C)C)NC(=O)[C@H](Cc1ccc(O)cc1)NC(=O)[C@H](CO)NC(=O)[C@H](CO)NC(=O)[C@@H](NC(=O)[C@H](CC(=O)O)NC(=O)[C@H](CO)NC(=O)[C@@H](NC(=O)[C@H](Cc1ccccc1)NC(=O)[C@@H](NC(=O)CNC(=O)[C@H](CCC(=O)O)NC(=O)[C@@](C)(CC(F)(F)F)NC(=O)[C@@H](N)Cc1c[nH]cn1)[C@@H](C)O)[C@@H](C)O)C(C)C)C(=O)N[C@@H](C)C(=O)N[C@@H](Cc1c[nH]c2ccccc12)C(=O)N[C@@H](CC(C)C)C(=O)N[C@H](C(=O)N[C@@H](CCCNC(=N)N)C(=O)NCC(=O)N[C@@H](CCCNC(=N)N)C(=O)NCC(=O)O)C(C)C [NO: 19]
EC50 (human GLP-1R): 0.791 ± 0.0635 nM

CC[C@H](C)[C@H](NC(=O)[C@H](Cc1ccccc1)NC(=O)[C@H](CCC(=O)O)NC(=O)[C@H](CCCCNC(=O)COCCOCCNC(=O)COCCOCCNC(=O)CC[C@H](NC(=O)CCCCCCCCCCCCCCCCC(=O)O)C(=O)O)NC(=O)[C@H](C)NC(=O)[C@H](C)NC(=O)[C@H](CCC(N)=O)NC(=O)CNC(=O)[C@H](CCC(=O)O)NC(=O)[C@H](CC(C)C)NC(=O)[C@H](Cc1ccc(O)cc1)NC(=O)[C@H](CO)NC(=O)[C@H](CO)NC(=O)[C@@H](NC(=O)[C@H](CC(=O)O)NC(=O)[C@H](CO)NC(=O)[C@@H](NC(=O)[C@H](Cc1ccccc1)NC(=O)[C@@H](NC(=O)CNC(=O)[C@H](CCC(=O)O)NC(=O)[C@@](C)(CC(F)(F)F)NC(=O)[C@@H](N)Cc1c[nH]cn1)[C@@H](C)O)[C@@H](C)O)C(C)C)C(=O)N[C@@H](C)C(=O)N[C@@H](Cc1c[nH]c2ccccc12)C(=O)N[C@@H](CC(C)C)C(=O)N[C@H](C(=O)N[C@@H](CCCNC(=N)N)C(=O)NCC(=O)N[C@@H](CCCNC(=N)N)C(=O)NCC(=O)O)C(C)C [NO: 20]
EC50 (human GLP-1R): 0.693 ± 0.0557 nM

CC[C@H](C)[C@H](NC(=O)[C@H](Cc1ccccc1)NC(=O)[C@H](CCC(=O)O)NC(=O)[C@H](CCCCNC(=O)COCCOCCNC(=O)COCCOCCNC(=O)CC[C@H](NC(=O)CCCCCCCCCCCCCCCCC(=O)O)C(=O)O)NC(=O)[C@H](C)NC(=O)[C@H](C)NC(=O)[C@H](CCC(N)=O)NC(=O)[C@](C)(NC(=O)[C@H](CCC(=O)O)NC(=O)[C@H](CC(C)C)NC(=O)[C@H](Cc1ccc(O)cc1)NC(=O)[C@H](CO)NC(=O)[C@H](CO)NC(=O)[C@@H](NC(=O)[C@H](CC(=O)O)NC(=O)[C@H](CO)NC(=O)[C@@H](NC(=O)[C@H](Cc1ccccc1)NC(=O)[C@@H](NC(=O)CNC(=O)[C@H](CCC(=O)O)NC(=O)[C@](C)(NC(=O)[C@@H](N)Cc1c[nH]cn1)C(F)(F)C(F)(F)F)[C@@H](C)O)[C@@H](C)O)C(C)C)C(F)(F)C(F)(F)F)C(=O)N[C@@H](C)C(=O)N[C@@H](Cc1c[nH]c2ccccc12)C(=O)N[C@@H](CC(C)C)C(=O)N[C@H](C(=O)N[C@@H](CCCNC(=N)N)C(=O)NCC(=O)N[C@@H](CCCNC(=N)N)C(=O)NCC(=O)O)C(C)C [NO: 21]
EC50 (human GLP-1R): 0.652 ± 0.0417 nM

CC[C@H](C)[C@H](NC(=O)[C@H](Cc1ccccc1)NC(=O)[C@H](CCC(=O)O)NC(=O)[C@H](CCCCNC(=O)COCCOCCNC(=O)COCCOCCNC(=O)CC[C@H](NC(=O)CCCCCCCCCCCCCCCCC(=O)O)C(=O)O)NC(=O)[C@H](C)NC(=O)[C@H](C)NC(=O)[C@H](CCC(N)=O)NC(=O)CNC(=O)[C@H](CCC(=O)O)NC(=O)[C@H](CC(C)C)NC(=O)[C@H](Cc1ccc(O)cc1)NC(=O)[C@H](CO)NC(=O)[C@H](CO)NC(=O)[C@@H](NC(=O)[C@H](CC(=O)O)NC(=O)[C@H](CO)NC(=O)[C@@H](NC(=O)[C@H](Cc1ccccc1)NC(=O)[C@@H](NC(=O)CNC(=O)[C@H](CCC(=O)O)NC(=O)[C@](C)(NC(=O)[C@@H](N)Cc1c[nH]cn1)C(F)(F)C(F)(F)F)[C@@H](C)O)[C@@H](C)O)C(C)C)C(=O)N[C@@H](C)C(=O)N[C@@H](Cc1c[nH]c2ccccc12)C(=O)N[C@@H](CC(C)C)C(=O)N[C@H](C(=O)N[C@@H](CCCNC(=N)N)C(=O)NCC(=O)N[C@@H](CCCNC(=N)N)C(=O)NCC(=O)O)C(C)C [NO: 22]
EC50 (human GLP-1R): 0.63 ± 0.0519 nM

Semaglutide
Random blood glucose (db/db mice; 30 nmol/kg SC group, baseline at grouping before administration, X ± s, n = 8): 25.8 ± 3.9 mmol/L
Blood glucose at different time after administration, 0 h (db/db mice; 30 nmol/kg SC single dose, 0 h): 26.8 ± 3.2 mmol/L
Blood glucose at different time after administration, 2 h (db/db mice; 30 nmol/kg SC single dose, 2 h): 14.9 ± 4.1 mmol/L
Blood glucose at different time after administration, 4 h (db/db mice; 30 nmol/kg SC single dose, 4 h): 13.2 ± 3.2 mmol/L
Blood glucose at different time after administration, 6 h (db/db mice; 30 nmol/kg SC single dose, 6 h): 13.3 ± 3.7 mmol/L
Blood glucose at different time after administration, 10 h (db/db mice; 30 nmol/kg SC single dose, 10 h): 11.5 ± 3.7 mmol/L
Blood glucose at different time after administration, 24 h (db/db mice; 30 nmol/kg SC single dose, 24 h): 12.6 ± 5.6 mmol/L
Blood glucose at different time after administration, 36 h (db/db mice; 30 nmol/kg SC single dose, 36 h): 21.1 ± 4.1 mmol/L
Blood glucose at different time after administration, 48 h (db/db mice; 30 nmol/kg SC single dose, 48 h): 21.3 ± 5.6 mmol/L
Blood glucose at different time after administration, 56 h (db/db mice; 30 nmol/kg SC single dose, 56 h): 28.3 ± 4.8 mmol/L
Blood glucose at different time after administration, 72 h (db/db mice; 30 nmol/kg SC single dose, 72 h): 32.3 ± 1.9 mmol/L
Random body weight at different time after administration, Day 0 ([2]; 30 nmol/kg SC single dose, Day 0): 41.62 ± 1.56
Random body weight at different time after administration, Day 1 ([2]; 30 nmol/kg SC single dose, Day 1): 38.86 ± 1.37
Random body weight at different time after administration, Day 2 ([2]; 30 nmol/kg SC single dose, Day 2): 40.56 ± 1.51
Random body weight at different time after administration, Day 3 ([2]; 30 nmol/kg SC single dose, Day 3): 41.03 ± 1.72
Random body weight at different time after administration, Day −1 ([2]; 30 nmol/kg group, Day −1 (before administration)): 40.24 ± 1.44
Random body weight at different time after administration, Day −2 ([2]; 30 nmol/kg group, Day −2 (before administration), X ± s, n = 8): 41.37 ± 1.64

From patent US12590134B2, “GLP-1 agonist polypeptide compound and salt thereof, synthesis method therefor and use thereof” (Sinopep-Allsino Biopharmaceutical Co., Ltd., priority 2020, dated 2026)
